Results: ChEMBL document CHEMBL5370666, “Covalent Peptide LSD1 Inhibitor Specifically Recognizes Cys360 in the Enzyme-Active Region” (J Med Chem, 2023)
Calls of active or inactive are those of the source. The calls are words filed in the database; no cut-off is given here. *1 amine or outer side, *2 acyl side, *3 side chain or, on linkers, in order; H or OH if unused. Where a SMILES comes first, the peptide text is derived from it. Bridges are numbered along the chain shown (N, C = ends). [ ]: non-standard residue; d: D form. The star is where a group is joined. Met(S-mXyl) = C[S+](CC[C@H](N[*:1])C(=O)[*:2])Cc1cccc(C[*:3])c1; Biotin = O=C1N[C@H]2[C@H](CS[C@H]2CCCCC(=O)*)N1

What was measured:
[1] = target: Lysine-specific histone demethylase 1A (Homo sapiens) (UniProt O60341); test: Covalent binding affinity to full-length human LSD1 transfected in HEK293T cell lysate at 40 uM incubated overnight by biotin-pull down assay; type: subcellular
[2] = target: T1, Phospholipid hydroperoxide glutathione peroxidase GPX4 (Homo sapiens) (UniProt P36969); test: Binding affinity to GPX4 (unknown origin) at 50 uM incubated for 12 hrs by SDS-PAGE analysis
T1 sequence (whole entry): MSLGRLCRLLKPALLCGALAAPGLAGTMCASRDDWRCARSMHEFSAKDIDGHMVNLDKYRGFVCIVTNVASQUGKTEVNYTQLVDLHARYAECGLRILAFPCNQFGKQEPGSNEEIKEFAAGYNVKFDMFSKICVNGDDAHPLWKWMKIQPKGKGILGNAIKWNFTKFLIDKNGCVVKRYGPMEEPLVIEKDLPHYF

[3] = target: Apoptosis regulator Bcl-2 (Homo sapiens) (UniProt P10415); test: Binding affinity to BCL2 (unknown origin) at 50 uM incubated for 12 hrs by SDS-PAGE analysis
[4] = target: T2, Amine oxidase [flavin-containing] A (Homo sapiens, UniProt P21397); test: Inhibition of MAO-A (unknown origin) incubated for 10 mins by fluorescence based assay
T2 sequence (P21397 whole entry): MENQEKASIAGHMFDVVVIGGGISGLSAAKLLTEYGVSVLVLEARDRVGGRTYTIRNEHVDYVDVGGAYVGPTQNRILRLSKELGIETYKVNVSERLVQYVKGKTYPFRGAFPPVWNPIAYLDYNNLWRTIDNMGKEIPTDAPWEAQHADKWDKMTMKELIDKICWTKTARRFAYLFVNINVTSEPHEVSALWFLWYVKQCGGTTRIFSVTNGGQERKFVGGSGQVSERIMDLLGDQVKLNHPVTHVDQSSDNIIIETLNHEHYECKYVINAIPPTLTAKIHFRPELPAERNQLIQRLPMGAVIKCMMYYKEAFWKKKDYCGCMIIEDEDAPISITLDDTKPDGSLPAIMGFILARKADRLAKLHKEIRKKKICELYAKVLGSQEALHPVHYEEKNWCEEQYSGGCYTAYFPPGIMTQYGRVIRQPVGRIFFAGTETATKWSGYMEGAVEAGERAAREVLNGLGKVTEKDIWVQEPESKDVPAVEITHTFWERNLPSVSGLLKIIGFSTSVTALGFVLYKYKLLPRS

T47D [5] = test: Cytotoxicity against human T47D cells assessed as cell viability at 100 uM incubated for 24 hrs by MTT assay relative to control; details: read-out: Activity
A549 [6] = test: Cytotoxicity against human A549 cells assessed as cell viability at 100 uM incubated for 24 hrs by MTT assay relative to control; details: A549, 24 h, read-out: Activity
T47D [7] = test: Induction of apoptosis in human T47D cells assessed as viable cells incubated for 24 hrs by Annexin V-FITC/PI staining based flow cytometry (reference value: 98.6 %); type: functional
T47D [8] = test: Induction of apoptosis in human T47D cells assessed as early apoptotic cells incubated for 24 hrs by Annexin V-FITC/PI staining based flow cytometry (reference value: 0.274 %); type: functional
T47D [9] = test: Induction of apoptosis in human T47D cells assessed as late apoptotic cells incubated for 24 hrs by Annexin V-FITC/PI staining based flow cytometry (reference value: 0.898 %); type: functional
T47D [10] = test: Induction of apoptosis in human T47D cells assessed as necrotic cells incubated for 24 hrs by Annexin V-FITC/PI staining based flow cytometry (reference value: 0.243 %); type: functional
A549 [11] = test: Induction of cell cycle arrest in human A549 cells assessed as cell accumulation at G1 phase at 50 uM incubated for 24 hrs by RNase/PI staining based flow cytometry (reference value: 49.19 %); type: functional
A549 [12] = test: Induction of cell cycle arrest in human A549 cells assessed as cell accumulation at S phase at 50 uM incubated for 24 hrs by RNase/PI staining based flow cytometry (reference value: 39.60 %); type: functional
A549 [13] = test: Induction of cell cycle arrest in human A549 cells assessed as cell accumulation at G2 phase at 50 uM incubated for 24 hrs by RNase/PI staining based flow cytometry (reference value: 9.81 %); type: functional
[14] = Toxicity in athymic nude BALB/c ASlac-nu mouse xenografted with human A549 cells assessed as body weight loss at 20 mg/kg, sc everyday for 28 days; type: organism-based; details: in vivo, 672 h, time 28 day
A549 [15] = test: In vivo inhibition of LSD1 in human A549 cells xenografted in athymic nude BALB/c ASlac-nu mouse at 20 mg/kg, sc everyday for 28 days by IHC analysis; type: functional, organism-based; details: time 28.0 day
A549 [16] = details: Homo sapiens, dose 20.0 mg/kg, route sc, time 28.0 day

Chain of Apoptosis regulator Bcl-2 (Homo sapiens) (P10415 whole entry): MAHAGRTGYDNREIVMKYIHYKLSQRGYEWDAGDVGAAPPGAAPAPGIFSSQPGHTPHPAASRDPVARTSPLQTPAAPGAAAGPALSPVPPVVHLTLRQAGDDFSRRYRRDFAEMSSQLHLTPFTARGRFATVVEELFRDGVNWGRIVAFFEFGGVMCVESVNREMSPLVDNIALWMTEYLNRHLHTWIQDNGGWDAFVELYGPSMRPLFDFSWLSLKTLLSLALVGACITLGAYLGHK

| Compound | Activity [1] | Activity [2] | Activity [3] | inhibition (INH) [4] | viability at 100 µM (T47D [5]) [%] | viability at 100 µM (A549 [6]) [%] | Activity (T47D [7]) [%] | Activity (T47D [8]) [%] | Activity (T47D [9]) [%] | Activity (T47D [10]) [%] | Activity (A549 [11]) [%] | Activity (A549 [12]) [%] | Activity (A549 [13]) [%] | Activity [14] | inhibition (A549 [15]) | inhibition (A549 [16]) |
| --- | --- | --- | --- | --- | --- | --- | --- | --- | --- | --- | --- | --- | --- | --- | --- | --- |
| CC(=O)N1CCC[C@H]1C(=O)N[C@@H](CCCNC(=N)N)C(=O)N[C@H]1CSCc2cccc(c2)C[S+](C)CC[C@@H](C(=O)N[C@@H](CCCCNC(=O)CCCC[C@@H]2SC[C@@H]3NC(=O)N[C@@H]32)C(=O)N2CCC[C@H]2C(=O)N[C@@H](Cc2c[nH]c3ccccc23)C(N)=O)NC(=O)[C@H](C(C)C)NC(=O)[C@H](CC(C)C)NC(=O)[C@H](Cc2ccccc2)NC1=O (stereo not given in full) (Ac-PRCFLV[Met(S-mXyl)]K(Biotin)PW-NH2; thioether 3-7) | Active |  |  |  |  |  |  |  |  |  |  |  |  |  |  |  |
| CC(=O)N1CCC[C@H]1C(=O)N[C@@H](CCCNC(=N)N)C(=O)N[C@H]1CSCc2cccc(c2)C[S+](C)CC[C@@H](C(=O)N[C@@H](CCCCN)C(=O)N2CCC[C@H]2C(=O)N[C@@H](CCCNC(=N)N)C(=O)N[C@@H](CCCNC(=N)N)C(=O)N[C@@H](CCCNC(=N)N)C(=O)N[C@@H](CCCNC(=N)N)C(=O)N[C@@H](Cc2c[nH]c3ccccc23)C(N)=O)NC(=O)[C@H](C(C)C)NC(=O)[C@H](CC(C)C)NC(=O)[C@H](Cc2ccccc2)NC1=O (stereo not given in full) (Ac-PRCFLV[Met(S-mXyl)]KPRRRRW-NH2; thioether 3-7) |  | inactive | inactive | Not Active | ~7.4 | ~19.9 | 2.14 | 0 | 46.7 | 51.2 | 60.61 | 27.23 | 12 | Non-Toxic | Active | Active |
| C#CCN(C)CCCOc1ccc(Cl)cc1Cl [CLORGILINE] |  |  |  | Active |  |  |  |  |  |  |  |  |  |  |  |  |
| O=C(O)c1ccc(CN2CCC(CN[C@@H]3C[C@H]3c3ccccc3)CC2)cc1 [GSK2879552] |  |  |  |  |  |  | 95.9 | 1.62 | 1.74 | 0.743 | 53.15 | 36.7 | 9.92 | Non-Toxic | Active |  |
| Ac-PRSFLVRKPRRRRW-NH2 |  |  |  |  |  |  | 96.3 | 1.49 | 2.19 | 0.088 | 57.34 | 34.2 | 7.96 | Non-Toxic | Active |  |
